Reference: patent US9139810B2, “Method for culturing microorganisms to incorporate a substitue element” (priority 2010, dated 2015)

What was measured:
E. coli K12 NBRC3301 [1] = assay type: cell-based, Escherichia coli
E. coli K-12 (NBRC3993) = settings: additive (mg/mL as printed in the row) to S(−)fa medium, 37° C.
E. coli K12NBRC3301 = experiment: S starvation, adaptation culture with dSi and elementary analysis of cells by ICP-MS (Example 16); assay type: cell-based, Escherichia coli
E. coli K12 NBRC 3301 = experiment: Growth and Si content of acetone-treated cells by ICP/MS (Example 4); assay type: cell-based, Escherichia coli; settings: lac 1 + compound 5
[2] = system: B. subtilis Marburg NBRC13719; experiment: as above; assay type: cell-based, Bacillus subtilis; settings: for D 1 OD 660 nm: 22 hours; for D1ACW: acetone-treated dried cells
B. subtilis NBRC13719 = assay type: cell-based, Bacillus subtilis; settings: Glc(1) + Yex (0.5); day 5
E. coli K12 NBRC3301 [3] = settings: C(αC)Y medium, FIG. 1
E. coli K12 NBRC3301 [4] = experiment: Growth and adaptation culture in C(αC+X)Y medium with mmSi (Example 2, FIG. 2); assay type: cell-based, Escherichia coli
Protocol: A C source-limited medium (C(αC) medium) was prepared by adding a limited amount of lactate Na as C source (denoted as “αC”) to a C source-deleted C (−) medium. Escherichia coli growth was then examined using a C(αC+X) medium prepared by adding a methyl group-containing organic silicon compound mmSi (methyltrimethoxysilane (see Tables 2 and 3 for abbreviations for the compound)) to the C(αC) medium as a C source substitute compound; that is, an X-containing compound. Moreover, the effects resulting from adaptation culture were examined (specifically, after completion of the 1st (T1) culture, 2nd subculture (T2) was started in a medium of the same composition).
C source substitute compound: X: mmSi (methyltrimethoxysilane). Culture conditions: 100 mL/Erlenmeyer flask; 33° C.; and 130 rpm. At the time of completion of the 1st culture of, a portion of the culture fluid was pipetted off. Cells were washed by centrifugation and then seeded in a medium of the same composition. The OD value at the initiation of the subculture was adjusted to be close to the initial OD value of the 1st culture generation.
In a manner similar to that in Example 1, E. coli K12 starter cells were grown in a GY medium, cells were washed, and then subjected to C source starvation culture. The resulting cells were seeded as starter cells in a medium. On day 2, the 1st culture (denoted as “T1d2” in FIG. 2) cells were washed and then the cells were seeded as starter cells in a medium of the same composition for 2nd subculture for adaptation. On day 2 of the 2nd subculture (T2d2), the growth was measured.

S. cerevisiae NBRC0268 = experiment: Growth and Si content of acetone-treated cells by ICP/MS (Example 4); assay type: cell-based, Saccharomyces cerevisiae; settings: lac 3 + compound 5
[5] = lac 2 mg/mL + Y 0.5 mg/mL, FIG. 2
[6] = S(dSi)fa medium, d 3, mean of 2 to 3 flasks

Compound: O=BOB(O)OB(O)OB=O [BB, Borax or sodium borate]
- colony count and OD value compared with medium with only limited C source (E. coli K12 NBRC3301 [1]; C source substitute compound): increased
- OD 660 nm (d5) (E. coli K12 NBRC3301 [1]; Lac (2) + Y, X (10), day 5): 1.59

Compound: N[C@@H](CS)C(=O)O [L-cysteine]
- Amount of E. coli K12NBRC3993 growth OD660 × 10 d (cultured for 1 day) (E. coli K-12 (NBRC3993)): 0.240

Compound: O=S(=O)([O-])[O-].[Na+].[Na+] [Sodium sulfate, Sodium sulfate, anhydrous, reference compound]
- OD 660 nm (E. coli K12NBRC3301; test 2, S(−)fa + Na2SO4 (0.2 mg/mL), d3): 200 (OD 4.2)
- Amount of E. coli K12NBRC3993 growth OD660 × 10 d (cultured for 1 day) (E. coli K-12 (NBRC3993)): 0.144

Compound: CCO[Si](C)(C)OCC [emSi, Diethoxydimethylsilane]
- D 1 OD 660 nm (E. coli K12 NBRC 3301; 22 hours): 1.79
- D1ACW (E. coli K12 NBRC 3301; acetone-treated dried cells): 203 mg/100 mL
- D 1 OD 660 nm ([2]; lac 1 + compound 5): 2.48
- D1ACW ([2]; lac 1 + compound 5): 289 mg/100 mL
- OD 660 nm (d5) (B. subtilis NBRC13719): 6.69

Compound: CCO [ethanol]
- OD with ethanol equimolar to the ethyl group in emSi, compared with emSi (E. coli K12 NBRC3301 [3]): lower than that of emSi

Compound: CO[Si](C)(OC)OC [mmSi, Methyltrimethoxysilane]
- amount of growth in 2nd subculture versus 1st subculture (E. coli K12 NBRC3301 [4]; adaptation culture, T2d2 vs T1d2): higher than that of the 1st subculture
- OD value compared with control (only limited amount of C source) (E. coli K12 NBRC3301 [4]; [5]): increased
- dose dependence of increases in OD value (E. coli K12 NBRC3301 [4]; [5]): in a dose-dependent manner
- growth on the compound alone (E. coli K12 NBRC3301 [4]; no limited C source (rightmost in FIG. 2)): did not grow
- D 1 OD 660 nm (S. cerevisiae NBRC0268; 22 hours): 3.14
- D1ACW (S. cerevisiae NBRC0268; acetone-treated dried cells): 274 mg/100 mL
- D 1 OD 660 nm ([2]; lac 3 + compound 5): 2
- D1ACW ([2]; lac 3 + compound 5): 309 mg/100 mL

Compound: Sodium disilicate [dSi]
- OD 660 nm at end of 4th subculture of adaptation culture (E. coli K12NBRC3301; [6]): 1.93
- OD 660 nm at end of 5th subculture of adaptation culture (E. coli K12NBRC3301; [6]): 3.22
- OD 660 nm at end of 3rd subculture of adaptation culture (E. coli K12NBRC3301; S(dSi)fa medium, d 7, mean of 2 to 3 flasks): 1.91
- OD 660 nm at end of 2nd subculture of adaptation culture (E. coli K12NBRC3301; S(dSi)fa medium, d 9, mean of 2 to 3 flasks): 2.00
- OD 660 nm at end of 1st subculture of adaptation culture (E. coli K12NBRC3301; S(dSi)fa medium, d 13, mean of 2 to 3 flasks): 2.13
- OD 660 nm (E. coli K12NBRC3301; test 3, S(−)fa + Na2SO4 (0.02) + dSi (0.4 mg/mL), d3): 170 (OD 6.0)
- OD 660 nm (E. coli K12NBRC3301; test 4, S(−)fa + dSi (0.4 mg/mL), no S source, d4): 190 (OD 3.0)
